Source: US12593845B2 (priority 2019, dated 2026)

Assays:
[1] = test system: wheat powdery mildew pathogen (Erysiphe graminis f. sp. tritici); assay: Wheat powdery mildew seed treatment test; format: in vivo; details: Blumeria graminis, 168 h; seed treatment 100 g/100 kg wheat seeds (Chihoku); inoculation after 8 to 10 days; lesion area ratio 7 days after inoculation
Description: (§1) 5 parts by weight of the dihydropyrimidine compound of the present invention, 93.5 parts by weight of N,N-dimethylformamide, and 1.5 parts by weight of polyoxyethylene sorbitan monolaurate (TWEEN® 20) were mixed and dissolved to obtain an emulsion (I) including 5% of an active ingredient.
(§2) The control value was calculated by the following expression. Control value (%)=100−{lesion area ratio in treated group/lesion area ratio in untreated group}×100 [Expression 1]
The emulsion (I) was used to treat seeds such that (weight of dihydropyrimidine compound)/(weight of seeds) reached 100 g/100 kg based on the wheat seeds (variety: “Chihoku”). These seeds were disseminated in pots, and after 8 to 10 days, conidiospores of a wheat powdery mildew pathogen (Erysiphe graminis f. sp. tritici) were sprinkled thereon for inoculation (treated group). As a control, wheat seedlings that were not treated with the drug were inoculated in the same manner as described above (untreated group). The seedlings were left to stand in a greenhouse at 20° C.
(§3) On the 7 days after the inoculation, the leaves of the wheat seedlings were visually observed to determine the lesion area ratio, and the control value was calculated.

[2] = test system: wheat powdery mildew pathogen (Erysiphe graminis f. sp. tritici); assay: Wheat powdery mildew soil irrigation treatment test; format: in vivo; details: Blumeria graminis, 168 h; soil irrigation with 10 ml of 100 ppm drug solution per pot, wheat (Chihoku); inoculation after 8 to 10 days; lesion area ratio 7 days after inoculation
Description: as §1, §2
Pots (5.5 cm×5.5 cm) in which wheat seeds (variety: “Chihoku”) were disseminated were irrigated with 10 ml of a drug solution prepared by adding water to the emulsion (I) so as to have a concentration of the dihydropyrimidine compound of 100 ppm. After 8 to 10 days, conidiospores of a wheat powdery mildew pathogen (Erysiphe graminis f. sp. tritici) were sprinkled thereon for inoculation (treated group). As a control, wheat seedlings that were not treated with the drug were inoculated in the same manner as described above (untreated group). The seedlings were left to stand in a greenhouse at 20° C.
as §3

Aspergillus niger = assay: Antimicrobial test against Aspergillus niger; format: cell-based; details: 96 h, Vogel medium, 25° C., 4 days in the dark, turbidity at 405 nm, read-out: growth inhibition rate
Description: Spores of Aspergillus niger were added to and dispersed in a Vogel medium, and a dihydropyrimidine compound dissolved in dimethyl sulfoxide was added and mixed thereto at 25 ppm. The resulting solution was dispensed onto a 96-well microplate and cultivated in the dark at 25° C. for 4 days.
After the cultivation, the turbidity at a wavelength of 405 nm was measured by a microplate reader and compared with that in the untreated case to determine the growth inhibition of Aspergillus niger (%) was determined.

[3] = test system: apple scab pathogen (Venturia inaequalis); assay: Apple scab control test; format: in vivo; details: 336 h, 125 ppm drug solution sprayed onto apple seedlings (Orin), lesion area ratio 2 weeks after inoculation
Description: as §1, §2
Water was added to the emulsion (I) such that the concentration of the dihydropyrimidine compound reached 125 ppm to dissolve the emulsion, and a drug solution was obtained. Subsequently, the drug solution was sprayed onto apple seedlings (variety: “Orin”, leaf stage: 3 to 4) cultivated in seedling pots. After air drying, the seedlings were inoculated with conidiospores of an apple scab pathogen (Venturia inaequalis) (treated group). As a control, apple seedlings that were not sprayed with the drug solution were inoculated in the same manner (untreated group). The seedlings were left to stand in a humidified room at 20° C. using a 12 hour light/dark cycle.
On the day 2 weeks after the inoculation, the leaves of the apple seedlings were visually observed to determine the lesion area ratio, and the control value was calculated.

[4] = test system: wheat powdery mildew pathogen (Erysiphe graminis f. sp. tritici); assay: Wheat powdery mildew control test; format: in vivo; details: Blumeria graminis, 144 h; 125 ppm drug solution sprayed onto wheat seedlings (Chihoku); lesion area ratio 6 days after inoculation
Description: as §1, §2
Water was added to the emulsion (I) such that the concentration of the dihydropyrimidine compound reached 125 ppm to dissolve the emulsion, and a drug solution was obtained. Subsequently, the drug solution was sprayed onto wheat seedlings (variety: “Chihoku”, leaf stage: 1 to 2) cultivated in seedling pots. After air drying, conidiospores of a wheat powdery mildew pathogen (Erysiphe graminis f. sp. tritici) were sprinkled thereon for inoculation (treated group). As a control, wheat seedlings that were not sprayed with the drug solution were inoculated in the same manner as described above (untreated group). The seedlings were left to stand in a greenhouse at 20° C.
On the 6 days after the inoculation, the leaves of the wheat seedlings were visually observed to determine the lesion area ratio, and the control value was calculated.

[5] = test system: wheat brown rust pathogen (Puccinia recondita); assay: Wheat brown rust control test; format: in vivo; details: 288 h, 125 ppm drug solution sprayed onto wheat seedlings (Norin 61), lesion area ratio 12 days after inoculation
Description: as §1, §2
Water was added to the emulsion (I) such that the concentration of the dihydropyrimidine compound reached 125 ppm to dissolve the emulsion, and a drug solution was obtained. Subsequently, the drug solution was sprayed onto wheat seedlings (variety: “Norin 61”, leaf stage: 1 to 2) cultivated in seedling pots. After air drying, uredospores of a wheat brown rust pathogen (Puccinia recondita) were sprinkled on wheat seedlings sprayed with the drug solution for inoculation (treated group). As a control, wheat seedlings that were not sprayed with the drug solution were inoculated in the same manner as described above (untreated group). The seedlings were left to stand in a greenhouse at 20° C.
On the 12 days after the inoculation, the leaves of the wheat seedlings were visually observed to determine the lesion area ratio, and the control value was calculated.

Compound | pest or weed control at 100 g/100 kg seed [1] [%] | pest or weed control at 100 ppm [2] [%] | inhibition at 25 ppm (Aspergillus niger) [%] | pest or weed control at 125 ppm [3] [%] | pest or weed control at 125 ppm [4] [%] | pest or weed control at 125 ppm [5] [%]
COCC(=O)N[C@H](Cn1c(=O)c(/C(C)=N/OC(C)C)cn(CC(O)c2cc(F)ccc2OC)c1=O)C(C)C (stereo partly shown) [C-83] | ≥ 75 | ≥ 75 | ≥ 50 |  |  | 
COc1ccc(F)cc1C(O)Cn1cc(/C(C)=N/OC(C)C)c(=O)n(C[C@H](CC(C)C)NC(=O)C(C)C)c1=O (stereo partly shown) [C-199] | ≥ 75 | ≥ 75 | ≥ 50 |  |  | 
CCON=Cc1cn(CC(OCCC#N)c2cc(F)ccc2OC)c(=O)n(CCNC(=O)C(C)C)c1=O (stereo not shown) [A-17] |  |  |  | ≥ 75 | ≥ 75 | ≥ 75
CC[C@@H](Cn1c(=O)c(/C(C)=N/OC(C)C)cn(CC(O)c2ccccc2OC)c1=O)NC(=O)C(C)C (stereo partly shown) [C-93] | ≥ 75 | ≥ 75 | ≥ 50 |  |  | 
C=C1CCN(C(=O)C(C)n2c(=O)c(C=NOC(C)C)cn(CC(O)c3cc(F)ccc3OC)c2=O)CC1 (stereo not shown) [A-70] |  |  |  | ≥ 75 | ≥ 75 | ≥ 75
COc1ccc(F)cc1C(Cn1cc(C=NOC(C)C)c(=O)n(C(C)C(=O)NC(C)C)c1=O)OCCC#N (stereo not shown) [A-14, 2-(3-(2-(2-cyanoethoxy)-2-(5-fluoro-2-methoxyphenyl)ethyl)-5-((isopropoxyimino)methyl)-2,6-dioxo-3,6-dihydropyrimidin-1(2H)-yl)-N-isopropylpropanamide] |  |  | ≥ 50 | ≥ 75 | ≥ 75 | ≥ 75
CCO/N=C(\C)c1cn(CC(O)c2cc(F)ccc2OC)c(=O)n(C2CCCC2NC(=O)C(C)C)c1=O (stereo not shown) [A-48] |  |  |  | ≥ 75 | ≥ 75 | ≥ 75
COc1ccccc1C(O)Cn1cc(/C(C)=N/OC(C)C)c(=O)n(C[C@@H](NC(=O)C2CC2)C(C)C)c1=O (stereo partly shown) [C-99] | ≥ 75 | ≥ 75 | ≥ 50 |  |  | 
CCCON=Cc1cn(CC(OCCC#N)c2cc(F)ccc2OC)c(=O)n(C(C)C(=O)NC(C)C)c1=O (stereo not shown) [A-11] |  |  |  | ≥ 75 | ≥ 75 | ≥ 75
COc1ccc(F)cc1C(O)Cn1cc(/C(C)=N/OC(C)C)c(=O)n(C[C@H](C)NC(=O)N(C)C)c1=O (stereo partly shown) [C-179] | ≥ 75 | ≥ 75 | ≥ 50 |  |  | 
COc1ccc(F)cc1C(Cn1cc(/C(C)=N/OC(C)C)c(=O)n(CCN(C)C(=O)C(C)C)c1=O)OC (stereo not shown) [A-99] |  |  |  | ≥ 75 | ≥ 75 | ≥ 75
COc1ccc(F)cc1C(Cn1cc(C=NOC(C)C)c(=O)n(C(C)C(=O)N2CCCCC2)c1=O)OCCC#N (stereo not shown) [A-69] |  |  |  |  | ≥ 75 | ≥ 75
COc1ccc(F)cc1C(O)Cn1cc(/C(C)=N/OC(C)C)c(=O)n(C[C@@H](NC(=O)C(C)=O)C(C)C)c1=O (stereo partly shown) [C-73] | ≥ 75 | ≥ 75 | ≥ 50 |  |  | 
COc1ccccc1C(O)Cn1cc(/C(C)=N/OC(C)C)c(=O)n(C[C@@H](NC(=O)C(C)C)C(C)C)c1=O (stereo partly shown) [C-170] | ≥ 75 | ≥ 75 | ≥ 50 |  |  | 
CCC(=O)N[C@H](Cn1c(=O)c(/C(C)=N/OC(C)C)cn(CC(O)c2cc(F)ccc2OC)c1=O)C(C)C (stereo partly shown) [C-117] | ≥ 75 | ≥ 75 | ≥ 50 |  |  | 
COc1ccc(F)cc1C(O)Cn1cc(/C(C)=N/OC(C)C)c(=O)n(C[C@@H](NC(C)=O)C(C)C)c1=O (stereo partly shown) [C-207] | ≥ 75 | ≥ 75 | ≥ 50 |  |  | 
CCON=Cc1cn(CC(OC)c2cc(F)ccc2OC)c(=O)n(C(C)C(=O)NC(C)C)c1=O (stereo not shown) [A-91] |  |  |  | ≥ 75 | ≥ 75 | ≥ 75
COc1ccc(F)cc1C(O)Cn1cc(/C(C)=N/OC(C)C)c(=O)n(C[C@@H](NC(=O)C(C)C)C(C)(C)C)c1=O (stereo partly shown) [C-148] | ≥ 75 | ≥ 75 | ≥ 50 |  |  | 
CCc1ccccc1C(O)Cn1cc(/C(C)=N/OC(C)C)c(=O)n(C[C@H](C)NC(=O)C(C)C)c1=O (stereo partly shown) [C-197] | ≥ 75 | ≥ 75 | ≥ 50 |  |  | 
COc1ccc(F)cc1C(O)Cn1cc(/C(C)=N/OC(C)C)c(=O)n(C[C@@H](NC(=O)C(C)C)C(C)C)c1=O (stereo partly shown) [C-210] | ≥ 75 | ≥ 75 | ≥ 50 |  |  | 
C=C(C)C(=O)N[C@H](Cn1c(=O)c(/C(C)=N/OC(C)C)cn(CC(O)c2cc(F)ccc2OC)c1=O)C(C)C (stereo partly shown) [C-101] | ≥ 75 | ≥ 75 | ≥ 50 |  |  | 
COc1ccc(F)cc1C(Cn1cc(C=NOCC(F)F)c(=O)n(C(C)C(=O)NC(C)C)c1=O)OCCC#N (stereo not shown) [A-10] |  |  |  | ≥ 75 | ≥ 75 | ≥ 75
COc1ccccc1C(O)Cn1cc(/C(C)=N/OC(C)C)c(=O)n(C[C@H](C)NC(=O)C(C)C)c1=O (stereo partly shown) [A-58] | ≥ 75 | ≥ 75 | ≥ 50 | ≥ 75 | ≥ 75 | 
COc1ccc(F)cc1C(O)Cn1cc(/C(C)=N/OC(C)C)c(=O)n(CC(C)(C)C(=O)NC(C)C)c1=O (stereo not shown) [A-2] |  |  |  | ≥ 75 | ≥ 75 | ≥ 75
CC[C@@H](Cn1c(=O)c(/C(C)=N/OC(C)C)cn(CC(O)c2cc(F)ccc2OC)c1=O)NC(=O)C(C)C (stereo partly shown) [C-154] | ≥ 75 | ≥ 75 | ≥ 50 |  |  | 
CCCC(=O)N[C@H](Cn1c(=O)c(/C(C)=N/OC(C)C)cn(CC(O)c2ccccc2OC)c1=O)C(C)C (stereo partly shown) [C-95] | ≥ 75 | ≥ 75 | ≥ 50 |  |  | 
CCO/N=C(\C)c1cn(CC(O)c2cc(F)ccc2OC)c(=O)n(C[C@@H](NC(=O)C(C)C)C(C)C)c1=O (stereo partly shown) [C-107] | ≥ 75 | ≥ 75 | ≥ 50 |  |  | 
CCO/N=C(\C)c1cn(CC(O)c2cc(F)ccc2OC)c(=O)n(CC(C)(C)C(=O)NC(C)C)c1=O (stereo not shown) [A-25] |  |  |  | ≥ 75 |  | ≥ 75
C=Cc1ccccc1C(O)Cn1cc(/C(C)=N/OC(C)C)c(=O)n(C[C@H](C)NC(=O)C(C)C)c1=O (stereo partly shown) [C-160] | ≥ 75 | ≥ 75 | ≥ 50 |  |  | 
